Patent US20110143948A1, “MOLECULAR SIGNATURES AND BIOMARKERS ASSOCIATED WITH MELANOMA AND METHODS OF USE THEREOF” (priority 2008, published 2011)

Tested on: ncRNAs (SEQ ID NO 28-89)
Experiment: ncRNA arrays of melanocytes, keratinocytes, normal skin, melanoma cell lines and patient samples
Parameters: species or system human
Settings: for ncRNA array expression, patient 2: melanoma patient 2 sample compared to normal skin; for ncRNA array expression, patient 3: melanoma patient 3 sample compared to normal skin; for ncRNA array expression, patient 4: melanoma patient 4 sample compared to normal skin; for ncRNA array expression, patient 5: melanoma patient 5 sample compared to normal skin; for ncRNA array expression, patient 6: melanoma patient 6 sample compared to normal skin; for ncRNA array expression, patient 7: melanoma patient 7 sample compared to normal skin; for ncRNA array expression, patient 8: melanoma patient 8 sample compared to normal skin; for ncRNA array expression, patient 9: melanoma patient 9 sample compared to normal skin; for ncRNA array expression, patient 10: melanoma patient 10 sample compared to normal skin; for ncRNA array expression, patient 19: melanoma patient 19 sample compared to normal skin; for ncRNA array expression, patient 20: melanoma patient 20 sample compared to normal skin; for ncRNA array expression, patient 21: melanoma patient 21 sample compared to normal skin; for ncRNA array expression, patient 22: melanoma patient 22 sample compared to normal skin; for ncRNA array expression, patient 23: melanoma patient 23 sample compared to normal skin; for ncRNA array expression, patient 24: melanoma patient 24 sample compared to normal skin; for ncRNA array expression, patient 25: melanoma patient 25 sample compared to normal skin; for ncRNA array expression, patient 26: melanoma patient 26 sample compared to normal skin; for ncRNA array expression, patient 27: melanoma patient 27 sample compared to normal skin; for ncRNA array expression, patient 28: melanoma patient 28 sample compared to normal skin; for ncRNA array expression, patient 29: melanoma patient 29 sample compared to normal skin; for ncRNA array expression, patient 30: melanoma patient 30 sample compared to normal skin
Protocol: An ncRNA array platform that contains over 10,000 putative (>200 nt) ncRNAs including most of the known ncRNAs in mouse and human was conducted to evaluate ncRNAs within melanoma. Lack of coding potential was estimated by an algorithm that scores various characteristics of protein-coding genes, including open reading frame length, synonymous/non-synonymous base substitution rates and similarity to known proteins. These arrays provide the first generation of tools designed to analyze the dynamic expression of a large subset of ncRNAs in human and mouse and to identify candidate genes for more detailed functional analysis. In addition to the ncRNA content, probes targeting mRNA content from RefSeq are also included, allowing discovery of coordinated expression with associated protein-coding genes. The result of these assays is a list of ncRNA genes (i.e. SEQ ID NO 28-89) and maps of their sequence boundaries. We have profiled total RNA isolated from melanocytes, keratinocytes, normal human skin, melanoma cell lines and melanoma patient samples to identify differentially expressed ncRNAs in cell lines and tissues. ncRNAs expression in all tested samples were compared to either melanocytes or normal skin. We have identified a group of ncRNAs that are specific for (a) melanocytes (b) Keratinocytes (c) Melanoma cell lines (d) Melanoma patients. […] Probe DNA sequences for this array include: AF086032 (SEQ ID NO 107) […] BC071821 (SEQ ID NO 108) […] C AK130193 (SEQ ID NO 109) […] AL109719 (SEQ ID NO 110) […] AF085888 (SEQ ID NO 111) […] T BC033879 (SEQ ID NO 112) […] AA AK024556 (SEQ ID NO 113) […] Probe nomenclature is standard genebank IDs given by NCBI and other organizations.
Keratinocytes specific signatures were subtracted and resultant ncRNAs were validated by qRT-PCR and Northern blots. Results point out the presence of a group of melanoma specific ncRNAs (i.e. SEQ ID NO 28-89).

Substance | ncRNA array expression, patient 2 | ncRNA array expression, patient 3 | ncRNA array expression, patient 4 | ncRNA array expression, patient 5 | ncRNA array expression, patient 6 | ncRNA array expression, patient 7 | ncRNA array expression, patient 8 | ncRNA array expression, patient 9 | ncRNA array expression, patient 10 | ncRNA array expression, patient 19 | ncRNA array expression, patient 20 | ncRNA array expression, patient 21 | ncRNA array expression, patient 22 | ncRNA array expression, patient 23 | ncRNA array expression, patient 24 | ncRNA array expression, patient 25 | ncRNA array expression, patient 26 | ncRNA array expression, patient 27 | ncRNA array expression, patient 28 | ncRNA array expression, patient 29 | also measured
SEQ ID NO 34 (TTTTCTCTGCTTATTACCCTCCCTGTTTCCTCCTGGGCTGCCAACAACATATTATATTAC; listed as DNA, chemistry not given here; listed as Homo sapiens) | 2.375 | 2.833 | 2.701 | 2.722 | 2.606 | 3.005 | 2.354 | 1.958 | −1.787 | 2.243 | 3.044 | 2.382 | 2.727 | 2.643 | 1.817 | 2.013 | 1.687 | 2.945 | 2.485 | 2.129 | ncRNA array expression, patient 30: −0.1242
SEQ ID NO 35 (GTTTCCATTGAAGAATATTACGCTCGGGGACAAGCCAGGTGCACGACCAAAAATTTAAAA; DNA, backbone and methylation of C not given here; listed as Homo sapiens) | 1.513 | 3.848 | 3.278 | 2.521 | 2.07 | 3.025 | 2.14 | −0.1931 | 3.606 | 0.9237 | 2.507 | 2.618 | 0.8167 | 2.729 | −2.783 | 1.774 | 3.301 | 3.86 | 4.108 | 3.127 | ncRNA array expression, patient 30: −0.8323
SEQ ID NO 36 (TATTTGTGACTAACTGTATAACAGGTTATTTTAGTTTCTGTTCTGTGGGAAGTGTAAAGC; listed as DNA, chemistry not given here; listed as Homo sapiens) | 3.977 | 3.577 | 4.181 | 4.05 | 3.52 | 4.601 | 4.36 | 3.565 | 2.818 | 3.798 | 4.669 | 3.909 | 3.164 | 2.96 | 3.815 | 5.084 | 4.401 | 4.909 | 4.878 | 4.381 | ncRNA array expression, patient 30: −1.698
SEQ ID NO 37 (ACGCACTGGGCGTTGAAGCAGTGCTTTCTGGATTAAATACGAAATACTGATGTCACAAGC; DNA, backbone and methylation of C not given here; listed as Homo sapiens) | 1.589 | 0.3993 | 0.7773 | 2.425 | −0.3494 | 1.933 | 1.302 | 2.619 | 3.899 | 4.51 | 0.9938 | 2.575 | 0.0988 | 1.771 | 4.312 | 3.471 | 2.31 | 0.5554 | 1.732 | 2.461 | ncRNA array expression, patient 30: −1.17
SEQ ID NO 38 (GTAAACAAGGTCTCACAAAAACAGCTGACCACACCATAAAATCACTGAGACCGAGCCTGC; listed as DNA, chemistry not given here; listed as Homo sapiens) | −1.1813 | −1.02 | −0.9275 | −1.288 | −1.615 | −1.64 | −1.244 | −1.183 | −0.784 | −0.7729 | −0.9285 | −1.068 | −0.7593 | −1.569 | −1.078 | −1.365 | −1.368 | −1.317 | −1.181 | −1.249 | ncRNA array expression, patient 30: 0.333
SEQ ID NO 39 (TGATCCTGTAAATCATGTTTTTGTTTATTCCCCAACACTAACCTCACTCCTTTACTATTC; listed as DNA, chemistry not given here; listed as Homo sapiens) | −1.04 | −0.7852 | −1.149 | −1.017 | −0.9404 | −1.086 | −0.9282 | −1.306 | −1.237 | −0.6006 | −1.263 | −1.232 | −0.301 | −0.164 | −1.204 | −1.66 | −1.776 | −1.287 | −1.448 | −1.374 | ncRNA array expression, patient 30: 0.02356
SEQ ID NO 40 (GTTAAAGACTAAATTAGTGATTTGGGAGATCAAGCCAATGGGCTTGTCTAAAACCTAGTC; listed as DNA, chemistry not given here; listed as Homo sapiens) | 1.341 | 1.98 | 2.261 | 0.52 | 1.498 | 0.4373 | 1.771 | 0.4625 | 0.3577 | 0.3342 | 0.9994 | 0.489 | 0.9011 | 1.125 | 0.452 | 2.17 | 2.021 | 1.467 | 1.364 | 1.245 | ncRNA array expression, patient 30: 0.7348
